According to patent US20100286174A1, “INHIBITING GSNOR” (Duke University, priority 2009, published 2010):

Test system: diabetic nephropathy
Test: Treatment of patient with diabetic nephropathy (Working Example IV)
Assay type: in vivo, human
Details: person, creatinine of 3 at start; final concentration 6 micromolar; follow up 2 months later
From the text: A person with diabetic nephropathy and creatinine of 3 is started on compound 6 at a final concentration of 6 micromolar and at follow up 2 months later, the creatinine is 2.

Question: `CC(=O)CCc1ccc(-c2ccccc2)n1-c1ccc(C(C)=O)cc1` [compound 6] was tested. Which creatinine did it give?
Answer: Its creatinine is 2.
